Assay results published in publication PMC9223764, “In Vitro Selection and Characterization of HIV-1 Variants with Increased Resistance to LP-40, Enfuvirtide-Based Lipopeptide Inhibitor” (International Journal of Molecular Sciences, 2022).
Values joined by “and” are separate entries in the source; they are usually repeats but may differ in a detail not shown here. Identical values can stand only once. Like-named read-outs stand apart in the source and are kept apart here. Where a SMILES comes first, the peptide text is derived from it. The star is where a group is joined. Palmitoyl = CCCCCCCCCCCCCCCC(=O)*

Key:
Format in all cases: cell-based
[1] = system: T20- and LP40-resistant mutant pseudoviruses of HIV-1 NL4-3; conditions: for Largest decrease in susceptibility among LP-40-resistant strains / Largest decrease in susceptibility among T20-resistant strains / Decrease in sensitivity, range over strains / Decrease in sensitivity, range over mutants / Decrease in sensitivity: relative to WT
Description: To simulate the sequence changes of viral resistance genes under different drug concentration pressures, we constructed the Env genes under different drug concentration pressures in the PCDNA3.1 vector and obtained a series of mutations. […] T20-V 6~12, T20-V 13~14, and T 20-V 15~18 were constructed at concentrations of 200 µM (P21), 400 µM (P24), and 2000 µM (P32), respectively. Similarly, the LP-40 pressure concentrations were 0.3 µM, 8 µM, 20 µM, and 200 µM, respectively, and the constructs were numbered LP40-V 1~5, LP40-V 6~8, LP40-V 9~11, and LP40-V 12~15. Resistance mutations will cause varying levels of damage to the function of the pseudoviral envelope proteins. Here, we explored how serial mutations affect the function of viral envelope proteins. Based on this problem, we performed a single round of quantitative P24-infection experiments, packaging the pseudovirus with a previously constructed series of mutant plasmids. We compared the invasion ability of the HIV-1 wild-type and mutant pseudoviruses toward target cells under the same P24 content (using the invasion capacity of each subtype as 100%).
The frequency of the T20-V8 strain was 1/12. From sequence alignment, except for the L33S, which appeared in all the sequences, the new mutation site of D36G/V38A/N42T was also introduced.
Among them, LP-40-inhibited LP40-V11 reached 3.3 µM. When the concentration of LP-40 rose to 200 µM, I37T disappeared, and L33S/D36G/V38A/N42T/I69V became the main mutation point.
The mutation G20V only appeared in T20-induced drug resistance, and the frequency was low. […] This mutation point N126K appeared in LP-40-induced drug resistance with a high frequency.
(§1) The infectivity of HIV Env mutants and the inhibitory activities of membrane fusion inhibitors on mutants in TZM-bl cells were measured using a single-cycle infection assay as described previously. Briefly, the HIV pseudovirus was packed using an Env-coding plasmid, and pSG3ΔEnv was co-transfected into HEK293T cells. pSG3ΔEnv encodes an Env-defective, luciferase-expressing HIV-1 genome. After the pseudoviruses were harvested and filtrated, the amount of pseudoviruses was fixed via P24 antigen, and their infectivity was determined in TZM-bl cells. In order to measure the inhibitory activities of the inhibitors, inhibitors diluted serially 3-fold were mixed with an equal volume of pseudoviruses, and then 100 µL 1 × 10^5/mL TZM-bl cells were added to the mixture and incubated at 37 °C with 5% CO2 for 48 h. After that, TZM-bl cells were lysed using reporter lysis buffer, and IC50 values were calculated according to luciferase activity measured by luciferase assay reagents and a luminescence counter (Promega, Madison, WI, USA).

[2] = system: HIV-1 NL4-3 gp41 N42T pseudovirus; conditions: Table 2; for IC50: N42T, TZM-bl cells, 48 h, luciferase, mean ± SD, triplicate, repeated three times
Description: (§2) The entry abilities of A15V, L57H, R68G, G86D, C87Y, E119G, and N140S were almost completely lost, corresponding to LP40-V6, LP40-V7, T20-V9, LP40-V3, LP40-V5, LP40-V4, and T20-V5, respectively, so it was determined that these mutation sites might be lethal mutations. […] The differences between the wild-type envelope proteins and serial mutant proteins in mediating membrane fusion were compared using a double-separated protein-based fusion experimental system. […] G20V, A21T, E119G, and Y127H had only an approximately 10% fusion capacity, and L33S, N42D, N42T, and N43S had less than 50% fusion capacity, but N140S had approximately 60% fusion capacity (Figure 6B). […] Among them, we selected the fusion ability of the sixth hour to evaluate the fusion activities of the mutant strains (Figure 6B).
(§3) Viral RNA was extracted from the supernatant, and, after reverse transcription, the cDNA was amplified using PCR. These amplified DNA were connected to the T-Easy vector and transformed to Trans 2-Blue Chemically Competent Cells. These sequences were determined via sequencing. The expression plasmids, which contained different HIV-1NL4-3 Env mutants, were constructed using DNA assembly (NEBuilder® HiFi DNA Assembly Master Mix). In brief, two primers were used to amplify Env, and the other two primers were used to amplify the vector fragment. The products of PCR were purified with a 20–25 bp overlap in the terminal of Env and the vector fragment Env and the vector fragment were added to the DNA assembly master mix at […] for 15 min and then transformed to Trans 2-Blue Chemically Competent Cells. Additionally, a single-point mutation was generated using double-stranded DNA templates and a selection of mutants with a restriction enzyme (DpnI) as described previously. The successful mutations were confirmed via sequencing.
as §1

[3] = system: HIV-1 NL4-3 gp41 N42D pseudovirus; conditions: Table 2; for IC50: N42D, TZM-bl cells, 48 h, luciferase, mean ± SD, triplicate, repeated three times
Description: as §2, §3, §1

[4] = system: HIV-1 NL4-3 gp41 A21T pseudovirus; conditions: Table 2; for IC50: A21T, TZM-bl cells, 48 h, luciferase, mean ± SD, triplicate, repeated three times
Description: as §2, §3, §1

[5] = system: HIV-1 NL4-3 gp41 L33S pseudovirus; conditions: for Fold change in IC50: L33S relative to WT NL4-3; for IC50: L33S, TZM-bl cells, 48 h, luciferase, mean ± SD, triplicate, repeated three times
Description: as §3, with “previously.” for “previously. The successful mutations were confirmed via sequencing.”
as §1

[6] = system: HIV-1 NL4-3 gp41 I37T pseudovirus; conditions: for Fold change in IC50: I37T relative to WT NL4-3; for IC50: I37T, TZM-bl cells, 48 h, luciferase, mean ± SD, triplicate, repeated three times
Description: as §3, with “previously.” for “previously. The successful mutations were confirmed via sequencing.”
as §1

[7] = six point-mutant pseudoviruses L33S, I37T, V38A, V38T, N42T, N43S
[8] = six point-mutant pseudoviruses L33S, I37T, V38A, V38T, N42T, N43S, read-out: IC50, range over mutants

CCCCCCCCCCCCCCCC(=O)NCCCC[C@H](NC(=O)[C@H](CC(=O)O)NC(=O)[C@H](CC(C)C)NC(=O)[C@H](CCC(=O)O)NC(=O)[C@H](CC(C)C)NC(=O)[C@H](CC(C)C)NC(=O)[C@H](CCC(=O)O)NC(=O)[C@H](CCC(N)=O)NC(=O)[C@H](CCC(=O)O)NC(=O)[C@H](CC(N)=O)NC(=O)[C@H](CCCCN)NC(=O)[C@H](CCC(=O)O)NC(=O)[C@H](CCC(N)=O)NC(=O)[C@H](CCC(N)=O)NC(=O)[C@H](CC(N)=O)NC(=O)[C@H](CCC(N)=O)NC(=O)[C@H](CO)NC(=O)[C@H](CCC(=O)O)NC(=O)[C@H](CCC(=O)O)NC(=O)[C@@H](NC(=O)[C@H](CC(C)C)NC(=O)[C@H](CO)NC(=O)[C@H](Cc1c[nH]cn1)NC(=O)[C@@H](NC(=O)[C@H](CC(C)C)NC(=O)[C@H](CO)NC(=O)[C@@H](NC(=O)[C@H](Cc1ccc(O)cc1)NC(C)=O)[C@@H](C)O)[C@@H](C)CC)[C@@H](C)CC)C(N)=O [LP-40] (Ac-YTSLIHSLIEESQNQQEKNEQELLELDK(Palmitoyl)-NH2) was tested, and the “Largest decrease in susceptibility among LP-40-resistant strains” value [1] was “over 227 fold”, the “Largest decrease in susceptibility among T20-resistant strains” value [1] was 227 fold and the “Decrease in sensitivity, range over strains” value (“Decrease … over strains” for short) ([1]; first group of LP-40-resistant strains (LP40-V1, LP40-V2)) was 1.5–12.6 fold. The “Decrease in sensitivity, range over mutants” value [1, 7] was 6–111 fold, the IC50 [1, 8] was 200 to 3500 nM and the Decrease in sensitivity ([1]; strains induced at LP-40 200 µM) was “over 227 fold”. For the same molecule, the Decrease in sensitivity ([1]; viral strains induced at LP-40 8 µM and 20 µM) was “more than 92 fold”, the IC50 ([1]; viral strains induced at LP-40 8 µM and 20 µM, read-out: IC50, range over strains) was 2800 to 3300 nM and the “Fold change in IC50” value ([2]; N42T relative to WT NL4-3) was 40.18 fold. For the same molecule, the IC50 [2] was 1270 ± 167 nM, the “Fold change in IC50” value ([3]; N42D relative to WT NL4-3) was 3.46 fold and the IC50 [3] was 109 ± 18.4 nM. For the same molecule, the “Fold change in IC50” value ([4]; A21T relative to WT NL4-3) was 0.85 fold, the IC50 [4] was 26.8 ± 8.36 nM and the “Fold change in IC50” value ([5]; Table 2) was 67 fold and 67.08 fold. The “Fold change in IC50” value ([5]; Table 3) was 77.43 fold, the IC50 ([5]; Table 2) was 2120 ± 534 nM and the “Fold change in IC50” value ([6]; Table 2) was 16.33 fold. For the same molecule, the “Fold change in IC50” value ([6]; Table 3) was 18.85 fold and the IC50 ([6]; Table 2) was 515 ± 74.3 nM.

Enfuvirtide was tested, and the “Largest decrease in susceptibility among LP-40-resistant strains” value [1] was 107 fold, the “Largest decrease in susceptibility among T20-resistant strains” value [1] was “up to 112 fold” and the “Decrease in sensitivity, range over mutants” value [1, 7] was 6–51 fold. The IC50 [1, 8] was 410 to 3400 nM, the “Decrease … over strains” value ([1]; strains induced at T20 2000 µM) was 32- to 112 fold and the Decrease in sensitivity ([1]; viral strains induced at T20 200 µM) was “more than 50 fold”. The IC50 ([1]; viral strains induced at T20 200 µM, read-out: IC50, range over strains) was 2800 to 5300 nM, the “Decrease … over strains” value ([1]; virus strain induced at T20 12 µM) was “one- to two” and the IC50 [2] was 413 ± 82 nM. It also gave an IC50 [3] of 164 ± 26.8 nM, an IC50 [4] of 58.9 ± 9.24 nM and an IC50 ([5]; Table 2) of 3450 ± 564 nM. For the same molecule, the IC50 ([6]; Table 2) was 711 ± 157 nM.
